# Measured values taken from patent US20170305857A1, “N-ACYLPIPERIDINE ETHER TROPOMYOSIN-RELATED KINASE INHIBITORS” (Pfizer Limited, priority 2014, published 2017).
# Target: T1, recombinant His-tagged cytoplasmic domains of TRKA receptor (NTRK1, PV3144, aa 441-796) (Homo sapiens, UniProt P04629)
# T1 construct: aa 441-796; His; purchased Invitrogen PV3144
# Experiment: Isolated TRK enzyme assay (HTRF KinEASE-TK, PV3144 TrkA enzyme assay)
# Format: biochemical
# Settings: 4 nM enzyme, 40 uM ATP, 35 min, arithmetic mean where more than one reading
# Summary of the method: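 Enzyme and ATP were preincubated with compound for 20 min at room temperature in buffer with 10 mM MgCl and 2 mM DTT. TK-substrate-Biotin was then added (1 uM final) and the reaction run for an enzyme-specific optimized time. Phosphorylation was read by HTRF, and IC50 values came from sigmoid fits of percent inhibition normalized to plate controls, averaged over replicate readings.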
# T1 sequence (P04629 441-796): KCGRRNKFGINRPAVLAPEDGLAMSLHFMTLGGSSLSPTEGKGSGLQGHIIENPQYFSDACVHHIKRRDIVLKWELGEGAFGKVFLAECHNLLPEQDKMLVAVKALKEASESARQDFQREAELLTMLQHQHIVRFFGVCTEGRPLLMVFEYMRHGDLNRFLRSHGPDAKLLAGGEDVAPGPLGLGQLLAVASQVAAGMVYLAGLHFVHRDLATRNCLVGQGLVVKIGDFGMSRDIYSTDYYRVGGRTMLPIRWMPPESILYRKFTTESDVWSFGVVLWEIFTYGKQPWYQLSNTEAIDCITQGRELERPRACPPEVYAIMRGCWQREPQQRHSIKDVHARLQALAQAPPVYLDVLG
row,IC50,SMILES
1,6.8 nM,"NC(=O)c1cc(-c2cn[nH]c2)ncc1O[C@@H]1CCN(C(=O)Cc2ccc(OC3CC3)cn2)C[C@@H]1F [Example 87, 5-{[(3S,4R)-1-{[5-(cyclopropyloxy)pyridin-2-yl]acetyl}-3-fluoropiperidin-4-yl]oxy}-2-(1H-pyrazol-4-yl)pyridine-4-carboxamide]"
2,1.5 nM,"NC(=O)c1cc(-c2cn[nH]c2)ncc1O[C@H]1CCN(C(=O)Cc2ccc(OC(F)(F)F)cc2)C[C@H]1F [Example 88, 5-{[(3R,4S)-3-fluoro-1-{[4-(trifluoromethoxy)phenyl]acetyl}piperidin-4-yl]oxy}-2-(1H-pyrazol-4-yl)pyridine-4-carboxamide]"
3,5.4 nM,"NC(=O)c1cc(-c2cnn(CCO)c2)cnc1OC1CCN(C(=O)Cc2ccc(OC(F)(F)F)cc2)CC1 [Example 89, 5-[1-(2-hydroxyethyl)-1H-pyrazol-4-yl]-2-[(1-{[4-(trifluoromethoxy)phenyl]acetyl}piperidin-4-yl)oxy]pyridine-3-carboxamide]"
4,4.2 nM,"NC(=O)c1cc(-c2ccn(CCO)n2)ccc1OC1CCN(C(=O)Cc2ccc(OC(F)(F)F)cc2)CC1 [Example 90, 5-[1-(2-hydroxyethyl)-1H-pyrazol-3-yl]-2-[(1-{[4-{trifluoromethoxy)phenyl]acetyl}piperidin-4-yl)oxy]benzamide]"
5,5.9 nM,"NC(=O)c1cc(-c2ccc(C(=O)O)cc2)cnc1OC1CCN(C(=O)Cc2ccc(OC(F)(F)F)cc2)CC1 [Example 95, 4-{5-carbamoyl-6-[(1-{[4-(trifluoromethoxy)phenyl]acetyl}piperidin-4-yl)oxy]pyridin-3-yl}benzoic acid]"
6,7.4 nM,"COCc1ccc(-c2cnc(OC3CCN(C(=O)Cc4ccc(OC(F)(F)F)cc4)CC3)c(C(N)=O)c2)cc1 [Example 97, 5-[4-(methoxymethyl)phenyl]-2-[(1-{[4-(trifluoromethoxy)phenyl]acetyl}piperidin-4-yl)oxy]pyridine-3-carboxamide]"
7,10.5 nM,"NCc1ccc(-c2cnc(OC3CCN(C(=O)Cc4ccc(OC(F)(F)F)cc4)CC3)c(C(N)=O)c2)cc1 [Example 98, 5-[4-(aminomethyl)phenyl]-2-[(1-{[4-(trifluoromethoxy)phenyl]acetyl}piperidin-4-yl)oxy]pyridine-3-carboxamide]"
8,7.7 nM,"Cc1nc[nH]c1-c1ccc(OC2CCN(C(=O)Cc3ccc(OC(F)(F)F)cc3)CC2)c(C(N)=O)c1 [Example 99, 5-(4-methyl-1H-imidazol-5-yl)-2-[(1-{[4-(trifluoromethoxy)phenyl]acetyl}piperidin-4-yl)oxy]benzamide]"
9,8.5 nM,"NC(=O)c1cc(-c2nccs2)ccc1OC1CCN(C(=O)Cc2ccc(OC(F)(F)F)cc2)CC1 [Example 100, 5-(1,3-thiazol-2-yl)-2-[(1-{[4-(trifluoromethoxy)phenyl]acetyl}piperidin-4-yl)oxy]benzamide]"
10,9.4 nM,"NC(=O)c1cc(-c2cscn2)ccc1OC1CCN(C(=O)Cc2ccc(OC(F)(F)F)cc2)CC1 [Example 101, 5-(1,3-thiazol-4-yl)-2-[(1-{[4-(trifluoromethoxy)phenyl]acetyl}piperidin-4-yl)oxy]benzamide]"
11,10.1 nM,"Cc1n[nH]c(C)c1-c1ccc(OC2CCN(C(=O)Cc3ccc(OC(F)(F)F)cc3)CC2)c(C(N)=O)c1 [Example 102, 5-(3,5-dimethyl-1H-pyrazol-4-yl)-2-[(1-{[4-(trifluoromethoxy)phenyl]acetyl}piperidin-4-yl)oxy]benzamide]"
12,4 nM,"NC(=O)c1cc(-c2ccc(N)nc2)ccc1OC1CCN(C(=O)Cc2ccc(OC(F)(F)F)cc2)CC1 [Example 104, 5-(6-aminopyridin-3-yl)-2-[(1-{[4-(trifluoromethoxy)phenyl]acetyl}piperidin-4-yl)oxy]benzamide]"
13,5 nM,"NCc1ccc(-c2ccc(OC3CCN(C(=O)Cc4ccc(OC(F)(F)F)cc4)CC3)c(C(N)=O)c2)cc1 [Example 105, 4′-(aminomethyl)-4-[(1-{[4-(trifluoromethoxy)phenyl]acetyl}piperidin-4-yl)oxy]biphenyl-3-carboxamide]"
14,5.3 nM,"NC(=O)c1cc(-c2cccc(CO)c2)ccc1OC1CCN(C(=O)Cc2ccc(OC(F)(F)F)cc2)CC1 [Example 106, 3′-(hydroxymethyl)-4-[(1-{[4-(trifluoromethoxy)phenyl]acetyl}piperidin-4-yl)oxy]biphenyl-3-carboxamide]"
15,9.8 nM,"Cn1cc(-c2ccc(OC3CCN(C(=O)Cc4ccc(C(C)(C)C)cc4)CC3)c(C(N)=O)c2)cn1 [Example 107, 2-({1-[(4-tert-butylphenyl)acetyl]piperidin-4-yl}oxy)-5-(1-methyl-1H-pyrazol-4-yl)benzamide]"
16,2.7 nM,"Cn1cc(-c2ccc(OC3CCN(C(=O)Cc4ccc(SC(F)(F)F)cc4)CC3)c(C(N)=O)c2)cn1 [Example 108, 5-(1-methyl-1H-pyrazol-4-yl)-2-{[1-({4-[(trifluoromethyl)sulfanyl]phenyl}acetyl)piperidin-4-yl]oxy}benzamide]"
17,7.1 nM,"CC(C)c1ccc(CC(=O)N2CCC(Oc3ccc(-c4cnn(C)c4)cc3C(N)=O)CC2)cc1 [Example 109, 5-(1-methyl-1H-pyrazol-4-yl)-2-[(1-{[4-(propan-2-yl)phenyl]acetyl}piperidin-4-yl)oxy]benzamide]"

row,IC50,SMILES
1,110 nM,"Cn1cc(-c2ccc(OC3CCN(C(=O)Cc4ccc(OC(F)(F)F)c(Cl)c4)CC3)c(C(N)=O)c2)cn1 [Example 110, 2-[(1-{[3-chloro-4-(trifluoromethoxy)phenyl]acetyl}piperidin-4-yl)oxy]-5-(1-methyl-1H-pyrazol-4-yl)benzamide]"
2,4.5 nM,"Cn1cc(-c2ccc(OC3CCN(C(=O)Cc4ccc(OC(F)(F)F)c(F)c4)CC3)c(C(N)=O)c2)cn1 [Example 111, 2-[(1-{[3-fluoro-4-(trifluoromethoxy)phenyl]acetyl}piperidin-4-yl)oxy]-5-(1-methyl-1H-pyrazol-4-yl)benzamide]"
3,4.4 nM,"NC(=O)c1cc(-c2cn(CCO)cn2)ccc1OC1CCN(C(=O)Cc2ccc(OC(F)(F)F)cc2)CC1 [Example 115, 5-[1-(2-hydroxyethyl)-1H-imidazol-4-yl]-2-[(1-{[4-(trifluoromethoxy)phenyl]acetyl}piperidin-4-yl)oxy]benzamide]"
4,8.1 nM,"NC(=O)c1cc(-c2cn(CCO)cn2)cnc1OC1CCN(C(=O)Cc2ccc(OC(F)(F)F)cc2)CC1 [Example 116, 5-[1-(2-hydroxyethyl)-1H-imidazol-4-yl]-2-[(1-{[4-(trifluoromethoxy)phenyl]acetyl}piperidin-4-yl)oxy]pyridine-3-carboxamide]"
5,10.8 nM,"NC(=O)c1cc(-c2c[nH]c(C3(F)COC3)n2)ccc1OC1CCN(C(=O)Cc2ccc(OC(F)(F)F)cc2)CC1 [Example 117, 5-[2-(3-fluorooxetan-3-yl)-1H-imidazol-4-yl]-2-[(1-{[4-(trifluoromethoxy)phenyl]acetyl}piperidin-4-yl)oxy]benzamide]"
6,1.1 nM,"Cc1nc(-c2cnc(O[C@H]3CCN(C(=O)Cc4ccc(OC(F)(F)F)cc4)C[C@H]3F)c(C(N)=O)c2)c[nH]1 [Example 118, 2-{[(3R,4S)-3-fluoro-1-{[4-(trifluoromethoxy)phenyl]acetyl}piperidin-4-yl]oxy}-5-(2-methyl-1H-imidazol-4-yl)pyridine-3-carboxamide]"
7,8 nM,"NC(=O)c1cc(-c2cnn(C[C@H](O)CO)c2)ccc1OC1CCN(C(=O)Cc2ccc(OC(F)(F)F)cc2)CC1 [Example 119, 5-{1-[(2S)-2,3-dihydroxypropyl]-1H-pyrazol-4-yl}-2-[(1-{[4-(trifluoromethoxy)phenyl]acetyl}piperidin-4-yl)oxy]benzamide]"
8,1.3 nM,Cc1nc(-c2cnc(O[C@@H]3CCN(C(=O)Cc4ccc(OC(F)(F)F)cc4)C[C@@H]3F)c(C(N)=O)c2)c[nH]1 [Example 120]
9,1.5 nM,Cc1nc(-c2ccc(O[C@@H]3CCN(C(=O)Cc4ccc(OC(F)(F)F)cc4)C[C@@H]3F)c(C(N)=O)c2)c[nH]1 [Example 121]
10,4.4 nM,NC(=O)c1cc(-c2cnn(C[C@@H](O)CO)c2)ccc1OC1CCN(C(=O)Cc2ccc(OC(F)(F)F)cc2)CC1 [Example 122]
11,3.8 nM,Cc1nn(C[C@@H](O)CO)c(C)c1-c1ccc(OC2CCN(C(=O)Cc3ccc(OC(F)(F)F)cc3)CC2)c(C(N)=O)c1 [Example 123]
12,7.4 nM,Cc1nn(C[C@H](O)CO)c(C)c1-c1ccc(OC2CCN(C(=O)Cc3ccc(OC(F)(F)F)cc3)CC2)c(C(N)=O)c1 [Example 124]
13,6.6 nM,NC(=O)c1cc(-c2cn(C[C@H](O)CO)cn2)ccc1OC1CCN(C(=O)Cc2ccc(OC(F)(F)F)cc2)CC1 [Example 125]
14,2.9 nM,"NC(=O)c1cc(-c2cn(C[C@@H](O)CO)cn2)ccc1OC1CCN(C(=O)Cc2ccc(OC(F)(F)F)cc2)CC1 [Example 126, 5-{1-[(2R)-2,3-dihydroxypropyl]-1H-imidazol-4-yl}-2-[(1-{[4-(trifluoromethoxy)phenyl]acetyl}piperidin-4-yl)oxy]benzamide]"
15,5.5 nM,"NC(=O)c1cc(-c2c[nH]cn2)ccc1OC1CCN(C(=O)Cc2ccc(OC(F)(F)F)cc2)CC1 [Example 127, 5-(1H-imidazol-4-yl)-2-[(1-{[4-(trifluoromethoxy)phenyl]acetyl}piperidin-4-yl)oxy]benzamide]"
16,6.1 nM,"CNC(=O)Cn1cnc(-c2ccc(OC3CCN(C(=O)Cc4ccc(OC(F)(F)F)cc4)CC3)c(C(N)=O)c2)c1 [Example 128, 5-{1-[2-(methylamino)-2-oxoethyl]-1H-imidazol-4-yl}-2-[(1-{[4-(trifluoromethoxy)phenyl]acetyl}piperidin-4-yl)oxy]benzamide]"
17,6.9 nM,"NC(=O)c1cc(-c2cnn(CC3(O)COC3)c2)ccc1OC1CCN(C(=O)Cc2ccc(OC(F)(F)F)cc2)CC1 [Example 129, 5-{1-[(3-hydroxyoxetan-3-yl)methyl]-1H-pyrazol-4-yl}-2-[(1-{[4-(trifluoromethoxy)phenyl]acetyl}piperidin-4-yl)oxy]benzamide]"
